According to article PMC8873251, “An amiloride derivative is active against the F1Fo-ATP synthase and cytochrome bd oxidase of Mycobacterium tuberculosis” (Communications Biology, 2022):

Columns and labels:
[1] = target: T1, F1Fo-ATP synthase c-subunit (c-ring) (Mycolicibacterium phlei, UniProt A0A5N5V239); experiment: MALDI-MS time course of covalent c-subunit labelling; assay type: binding
T1 construct: gene atpE

[2] = target: T1, F1Fo-ATP synthase c-subunit (c-ring); experiment: MALDI-MS competition with DCCD labelling of purified c-ring; assay type: binding
cytochrome bd oxidase = target: T2, cytochrome bd oxidase (Mycobacterium tuberculosis, UniProt L7N662+O06139); experiment: malate-driven oxygen consumption in IMVs pre-inhibited with TB47, titration; empty-vector control; assay type: biochemical
T2 construct: gene cydA
T2 sequence (O06139 entry or part of it): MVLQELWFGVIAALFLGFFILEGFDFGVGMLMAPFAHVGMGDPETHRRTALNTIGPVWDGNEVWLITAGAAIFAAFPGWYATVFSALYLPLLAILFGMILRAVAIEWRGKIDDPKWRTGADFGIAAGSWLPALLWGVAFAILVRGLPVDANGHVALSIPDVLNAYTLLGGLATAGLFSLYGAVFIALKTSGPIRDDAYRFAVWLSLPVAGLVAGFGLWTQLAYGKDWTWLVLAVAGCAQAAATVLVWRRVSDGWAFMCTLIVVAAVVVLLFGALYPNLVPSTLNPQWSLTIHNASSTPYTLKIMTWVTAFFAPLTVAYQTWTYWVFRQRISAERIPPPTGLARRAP
T2 sequence (L7N662 entry or part of it): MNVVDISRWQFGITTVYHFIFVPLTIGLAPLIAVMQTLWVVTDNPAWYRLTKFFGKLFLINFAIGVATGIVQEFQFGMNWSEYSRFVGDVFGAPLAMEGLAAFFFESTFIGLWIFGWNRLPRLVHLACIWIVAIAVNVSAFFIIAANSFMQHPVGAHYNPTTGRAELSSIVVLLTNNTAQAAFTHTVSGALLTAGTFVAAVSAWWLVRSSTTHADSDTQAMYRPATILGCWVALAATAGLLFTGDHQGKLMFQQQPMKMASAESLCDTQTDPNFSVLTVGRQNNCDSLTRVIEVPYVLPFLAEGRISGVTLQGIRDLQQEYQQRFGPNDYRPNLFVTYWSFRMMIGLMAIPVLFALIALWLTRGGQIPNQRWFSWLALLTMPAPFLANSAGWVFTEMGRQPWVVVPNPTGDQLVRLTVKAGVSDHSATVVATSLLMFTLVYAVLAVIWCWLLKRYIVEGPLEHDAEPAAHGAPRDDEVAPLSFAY

T1 sequence (A0A5N5V239 1-86): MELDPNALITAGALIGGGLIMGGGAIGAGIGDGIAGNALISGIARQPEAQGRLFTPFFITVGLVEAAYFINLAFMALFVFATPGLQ

C(=NC1CCCCC1)=NC1CCCCC1 [DCCD, N,N'-dicyclohexylcarbodiimide]
MALDI-MS time course of covalent c-subunit labelling [1]: Time course of DCCD labelling in purified M. phlei c-rings in the presence of the indicated amounts of HMA

N=C(N)NC(=O)c1nc(Cl)c(N2CCCCCC2)nc1N [HMA, 5-(N,N-hexamethylene)amiloride]
MALDI-MS competition with DCCD labelling of purified c-ring [2]: HMA was able to outcompete the canonical c-ring covalent inhibitor DCCD for inhibition of the M. phlei F1Fo-ATP synthase c-subunit

N=C(N)NC(=O)c1nc(-c2cc3ccccc3o2)c(N)nc1N [HM2-16F]
IC50 (cytochrome bd oxidase): 21.2 µM
